# Test results published in patent publication US20100311800A1, “ANGIOTENSIN II RECEPTOR ANTAGONISTS” (priority 2008, published 2010).
# Tests used:
# [1] = test system: conscious spontaneously hypertensive rats (SHRs); assay: Assay for antihypertensive activity (in vivo); design: species or system rat; details: for BP lowering compared to Compound A: SHR, same dose (10 mg/kg) or inferior dose (3 mg/kg)
# Experimental: The ability of the compounds of the invention to decrease blood pressure was evaluated in conscious spontaneously hypertensive rats (SHRs). SHRs (250-300 g) received a single oral dose of tested compounds. Systolic blood pressure (SBP) and heart rate were monitored by telemetry for 24 hours after dosing. SBP was evaluated before (baseline) and at different time points (i.e. 2-6, 12, 21-hours) following treatment by oral administration of the compounds. The data were processed both as the absolute value or as a delta between the absolute value and its own baseline.
# The Dataquest IV telemetry system (Data Sciences International) was used for measurement of systolic pressure, diastolic pressure, mean arterial pressure, heart rate, and motor activity. The monitoring system consists of a transmitter (radio frequency transducer model TA11PA), receiver panel, consolidation matrix, and personal computer with accompanying software. Before the device was implanted, calibrations were verified to be accurate within ±3 mmHg. Rats were anesthetized with ketamine/xylazine/acepromazine, and the flexible catheter of the transmitter was surgically secured in the abdominal aorta just below the renal arteries. The transmitter was sutured subcutaneously. Rats were housed in individual cages after the operation. Each cage was placed over the receiver panel that was connected to the personal computer for data acquisition. The rats were unrestrained and free to move within their cages. Hemodynamic data were sampled every 2 minutes for 10 seconds.
# [2] = test system: Reactive Nitrogen Species (RNS); assay: Assay for Reactive Nitrogen Species (RNS) (DAN assay); type: in vivo, rat; design: RNS levels: unit not given here; details: for RNS levels: EDTA-treated rat plasma
# Description: RNS were detected as S-nitrosothiols (RNSOs) in EDTA-treated rat plasma using an HPLC fluorescent assay based on the method of Kostka and Park (Methods Enzymol. 1999, 301, 227-235). The method is based on the detection of fluorescent 2,3-naphthotriazole (NAT) formed in the reaction between acidified 2,3-diaminonaphthalene (DAN) and the nitrosonium moiety of RSNOs released by HgCl2-mediated breakdown of the S—NO bond. The reaction mixture was chromatographed by reversed phase HPLC, and the fluorescent signal of the resolved NAT peak was quantified.
# Plasma (20 μL) was first diluted 1:1 in H2O (20 μL) in a black polypropylene untreated microtiter plate. DAN reagent (100 μL per well, 100 μM DAN in 0.1 N HCl, 4 mM HgCl2) was added, and the plate was immediately sealed with an opaque plate mat, vortexed, and incubated in the dark for 10 min. Plates were centrifuged (2000×g, 5 min) and chilled to 4° C. before HPLC analysis. HPLC was carried out on an Agilent 1200 system using a chilled autosampler (4° C.). Samples were chromatographed on a C8 column (Zorbax Eclipse XDB-C8, 4.6×150 mm, 5 μm) with isocratic elution using a mobile phase of 67% MeOH, 0.1% NH4OAc and a flow rate of 2 mL/min. NAT fluorescence was monitored at 450 nm using an excitation wavelength of 360 nm. Calibration curves were prepared using NaNO2 in control plasma. Typical range of quantitation was 0.1 μM to 30 μM NO2.
# [3] = test system: isolated rabbit thoracic aorta preparations; assay: Assay on vascular tone (vessel relaxation assay); type: cell-based; details: Oryctolagus cuniculus; aortic rings precontracted with noradrenaline 1 μM, functional endothelium
# Experimental: The ability of the compounds of the invention to induce vasorelaxation in comparison to native angiotensin II receptor blockers (ARBs) was tested in vitro in isolated rabbit thoracic aorta preparations (Wanstall J. C. et al., Br. J. Pharmacol., 134:463-472, 2001). Male New Zealand rabbits were anaesthetized with thiopental-Na (50 mg/kg, iv), sacrificed by exsanguinations and then the thorax was opened and the aorta dissected. Aortic ring preparations (4 mm in length) were set up in physiological salt solution (PSS) at 37° C. in small organ chambers (5 ml). The composition of PSS was (mM): NaCl 130, NaHCO3 14.9, KH2PO4 1.2, MgSO4 1.2, HEPES 10, CaCl2, ascorbic acid […] and glucose 1.1 (95% O2/5% CO2; pH 7.4). Each ring was mounted under 2 g passive tension. Isometric tension was recorded with a Grass transducer (Grass FT03) attached to a BIOPAC MP150 System. Preparations were allowed to equilibrate for 1 h, and then contracted submaximally with noradrenaline (NA, 1 μM) and, when the contraction was stable, acetylcholine (ACh, 10 μM) was added. A relaxant response to ACh indicated the presence of a functional endothelium. […] When a stable precontraction was reached, a cumulative concentration-response curve to either of the vasorelaxant agents was obtained in the presence of a functional endothelium. Each arterial ring was exposed to only one combination of inhibitor and vasorelaxant. Moreover, the effect of the soluble guanylyl cyclase inhibitor ODQ (1-H-(1,2,4)-oxadiazol(4,3-a)quinoxalin-1-one) on vasorelaxation elicited by the compounds was examined preincubating the aortic rings with ODQ (10 μM) for 20 min.
# Responses to relaxing agents are expressed as a percentage of residual contraction and plotted against concentration of test compound. EC50 values (where EC50 is the concentration producing 50% of the maximum relaxation to the test compound) were interpolated from these plots. During the experimental period, the plateau obtained with NA was stable without significant spontaneous loss of contraction in the aortic rings.
# Furthermore, in experiments performed in the presence of ODQ (10 μM), the vasorelaxant responses to tested compounds were inhibited.
# [4] = 10 mpk single oral dose, 21-24 h
# [5] = 3 mpk single oral dose, 21-24 h
Compound,EC50 [3] [µM],"Δ SBP in SHR ([1]; 10 mpk single oral dose, 2-6 h) [mmHg]","Δ SBP in SHR [1, 4] [mmHg]","Δ SBP in SHR ([1]; 10 mpk single oral dose, 12 h) [mmHg]",BP lowering compared to Compound A [1],other results
"CCCCc1nc(Cl)c(C(=O)OCCOCCO[N+](=O)[O-])n1Cc1ccc(-c2ccccc2-c2nn[nH]n2)cc1 [Compound A, reference compound]",–,−15,−8,−12,–,RNS levels ([2]; time 0 h): 0.4; RNS levels ([2]; time 1 h): 2.8; RNS levels ([2]; time 3 h): 1.4; RNS levels ([2]; time 6 h): 0.9; RNS levels ([2]; time 24 h): 0
CCOc1nc2cccc(C(=O)OC(C)(C)OC(=O)OCCCCC(C)O[N+](=O)[O-])c2n1Cc1ccc(-c2ccccc2-c2nnn[nH]2)cc1 (centres unmarked) [Example 2],31,–,–,–,extended peak effect and duration of action,"Δ SBP in SHR ([1]; 3 mpk single oral dose, 2-6 h): −30 mmHg; Δ SBP in SHR [1, 5]: −36 mmHg; Δ SBP in SHR ([1]; 3 mpk single oral dose, 12 h): −34 mmHg"
"CCCCc1nc(Cl)c(C(=O)OC(C)OC(=O)OCCCCC(C)O[N+](=O)[O-])n1Cc1ccc(-c2ccccc2-c2nn[nH]n2)cc1 (centres unmarked) [Example 4, 1-[({[5-(nitrooxy)hexyl]oxy}carbonyl)oxy]ethyl 2-butyl-4-chloro-1-{[2′-(1H-tetrazol-5-yl)biphenyl-4-yl]methyl}-1H-imidazole-5-carboxylate]",27,−10,−30,−30,extended peak effect and duration of action,RNS levels ([2]; time 0 h): 0.9; RNS levels ([2]; time 1 h): 6.9; RNS levels ([2]; time 3 h): 6.9; RNS levels ([2]; time 6 h): 2.4; RNS levels ([2]; time 24 h): 1.6; RNS levels compared to Compound A ([2]; rat plasma): improved RNS levels
CCOc1nc2cccc(C(=O)OC(C)OC(=O)CCCC(C)O[N+](=O)[O-])c2n1Cc1ccc(-c2ccccc2-c2nn[nH]n2)cc1 (centres unmarked) [Example 9],43,–,–,–,extended peak effect and duration of action,"Δ SBP in SHR ([1]; 3 mpk single oral dose, 2-6 h): −43 mmHg; Δ SBP in SHR [1, 5]: −50 mmHg; Δ SBP in SHR ([1]; 3 mpk single oral dose, 12 h): −49 mmHg"
"CCCCc1nc(Cl)c(COC(=O)C23CC4CC(CC(O[N+](=O)[O-])(C4)C2)C3)n1Cc1ccc(-c2ccccc2-c2nnn[nH]2)cc1 [Example 10, (2-butyl-4-chloro-1-{[2′-(1H-tetrazol-5-yl)biphenyl-4-yl]methyl}-1H-imidazol-5-yl)methyl 3-(nitrooxy)adamantane-1-carboxylate]",5.3,–,–,–,–,–

# The next lines start with results.
EC50 [3] [µM],Compound,"Δ SBP in SHR ([1]; 10 mpk single oral dose, 2-6 h) [mmHg]","Δ SBP in SHR [1, 4] [mmHg]","Δ SBP in SHR ([1]; 10 mpk single oral dose, 12 h) [mmHg]",BP lowering compared to Compound A [1],other results
22,"CCCCc1nc(Cl)c(C(=O)OC(C)OC(=O)OCCCC[C@@H](C)O[N+](=O)[O-])n1Cc1ccc(-c2ccccc2-c2nnn[nH]2)cc1 (stereo partly drawn) [Example 1, 1-[({[(R)-5-(nitrooxy)hexyl]oxy}carbonyl)oxy]ethyl 2-butyl-4-chloro-1-{[2′-(1H-tetrazol-5-yl)biphenyl-4-yl]methyl}-1H-imidazole-5-carboxylate]",–,–,–,–,–
39,"CCCCc1nc(Cl)c(C(=O)OC(C)OC(=O)OCCCC[C@H](C)O[N+](=O)[O-])n1Cc1ccc(-c2ccccc2-c2nn[nH]n2)cc1 (stereo partly drawn) [Example 3, 1-[({[(5S)-5-(nitrooxy)hexyl]oxy}carbonyl)oxy]ethyl 2-butyl-4-chloro-1-{[2′-(1H-tetrazol-5-yl)biphenyl-4-yl]methyl}-1H-imidazole-5-carboxylate]",–,–,–,–,–
22,"CCCCc1nc(Cl)c(C(=O)OC(C)OC(=O)OCCC(C)O[N+](=O)[O-])n1Cc1ccc(-c2ccccc2-c2nn[nH]n2)cc1 (centres unmarked) [Example 5, 1-[({[3-(nitrooxy)butyl]oxy}carbonyl)oxy]ethyl 2-butyl-4-chloro-1-{[2′-(1H-tetrazol-5-yl)biphenyl-4-yl]methyl}-1H-imidazole-5-carboxylate]",–,–,–,–,–
23,"CCCCc1nc(Cl)c(C(=O)OC(C)OC(=O)OCC[C@@H](C)O[N+](=O)[O-])n1Cc1ccc(-c2ccccc2-c2nn[nH]n2)cc1 (stereo partly drawn) [Example 6, 1-[({[(3R)-3-(nitrooxy)butyl]oxy}carbonyl)oxy]ethyl 2-butyl-4-chloro-1-{[2′-(1H-tetrazol-5-yl)biphenyl-4-yl]methyl}-1H-imidazole-5-carboxylate]",−16,−17,−21,extended peak effect and duration of action,–
26,"CCCCc1nc(Cl)c(C(=O)OC(C)OC(=O)OCC[C@H](C)O[N+](=O)[O-])n1Cc1ccc(-c2ccccc2-c2nn[nH]n2)cc1 (stereo partly drawn) [Example 7, 1-[({[(3S)-3-(nitrooxy)butyl]oxy}carbonyl)oxy]ethyl 2-butyl-4-chloro-1-{[2′-(1H-tetrazol-5-yl)biphenyl-4-yl]methyl}-1H-imidazole-5-carboxylate]",–,–,–,–,–
40,CCCCc1nc(Cl)c(C(=O)OC(C)OC(=O)CCCC(C)O[N+](=O)[O-])n1Cc1ccc(-c2ccccc2-c2nn[nH]n2)cc1 (centres unmarked) [Example 8],−31,−28,−29,extended peak effect and duration of action,–
